Activity calls are given as the source filed them. The calls are words filed in the database; no cut-off is given here.
Experiments:
[1] = target: Peptidyl-prolyl cis-trans isomerase NIMA-interacting 1 (Homo sapiens, UniProt Q13526); assay: Inhibition of full length pin1 (unknown origin) expressed in Escherichia coli
[2] = Antiproliferative activity against human HCC cells assessed as cell viability incubated for 72 hrs by alamar blue dye based assay; type: toxicity; settings: for IC50 at 72 h: HCC cells
SK-HEP1 [3] = assay: Inhibition of colony formation human SK-HEP1 cells at 2.5 uM incubated for 5 days by crystal violet staining based analysis; type: functional, cell-based; settings: time 5.0 day
SK-HEP1 [4] = assay: Inhibition of cell migration in human SK-HEP1 cells at 5 uM incubated for 24 hrs by crystal violet staining based microscopic analysis; type: functional
SK-HEP1 [5] = assay: Antiproliferative activity human SK-HEP1 cells assessed as cell viability measured at 120 hrs; type: functional, cell-based
SK-HEP1 [6] = assay: Antiproliferative activity human SK-HEP1 cells assessed as cell viability measured at 96 hrs; type: functional, cell-based
SK-HEP1 [7] = assay: Antiproliferative activity human SK-HEP1 cells assessed as cell viability measured up to 120 hrs; type: functional, cell-based

Sequence of Peptidyl-prolyl cis-trans isomerase NIMA-interacting 1 (Q13526 whole entry): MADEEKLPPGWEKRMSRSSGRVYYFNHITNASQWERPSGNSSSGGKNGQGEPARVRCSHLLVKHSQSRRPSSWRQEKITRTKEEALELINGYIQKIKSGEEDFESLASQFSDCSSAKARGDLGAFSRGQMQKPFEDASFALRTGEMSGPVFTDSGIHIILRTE

Row | Structure (SMILES) | IC50 [1] | IC50 at 72 h [2] | further results
1 | Cc1ccc(COc2nc(N)nc3nc[nH]c23)cc1 | 0.293 µM | 6.1 µM | –
2 | CCOC(=O)CCCn1cnc2c(OCc3cccc(OC)c3)nc(N)nc21 | 19.1 µM | > 50 µM | –
3 | Nc1nc(OCc2ccccc2-c2ccccc2)c2nc[nH]c2n1 | 8.03 µM | 28.9 µM | –
4 | Nc1nc(OCc2ccc(Br)cc2)c2[nH]cnc2n1 | 0.256 µM | 4.8 µM | –
5 | COc1cccc(COc2nc(N)nc3c2ncn3Cc2ccccc2)c1 | 1.46 µM | > 50 µM | –
6 | COc1cc(COc2nc(N)nc3[nH]cnc23)cc(OC)c1OC | 7.85 µM | > 50 µM | –
7 | CCOC(=O)Cn1cnc2c(OCc3cccc(Cl)c3Cl)nc(N)nc21 | > 50 µM | > 50 µM | –
8 | Nc1nc(OCC2CCCCC2)c2nc[nH]c2n1 | 5.69 µM | 29.6 µM | –
9 | Nc1nc(OCCCc2ccccc2)c2nc[nH]c2n1 | 3.63 µM | 35.6 µM | –
10 | COC(=O)Cn1cnc2c(OCc3cccc(Cl)c3Cl)nc(N)nc21 | 0.829 µM | > 50 µM | –
11 | O=C1C=CC(=O)c2c(O)cccc21 | – | – | inhibition (SK-HEP1 [3]): Active
12 | CC(=O)NCc1ccc(COc2nc(N)nc3[nH]cnc23)cc1 | 0.125 µM | 5.3 µM | –
13 | COc1cc(COc2nc(N)nc3[nH]cnc23)ccc1OCc1ccccc1 | 11.1 µM | 11.2 µM | –
14 | Nc1nc(OCc2ccc(CNC(=O)C(F)(F)F)cc2)c2nc[nH]c2n1 | 0.148 µM | – | inhibition (SK-HEP1 [4]): Active; Activity (SK-HEP1 [5]): Active; Activity (SK-HEP1 [6]): Active; Activity (SK-HEP1 [7]): Active; inhibition (SK-HEP1 [3]): Active; Activity ([2]; hcc, 72 h): Non-toxic
15 | Nc1nc(OCc2cccc(Br)c2)c2nc[nH]c2n1 | 0.64 µM | 11.3 µM | –
16 | CCOC(=O)Cn1cnc2c(OCc3cccc(Oc4ccccc4)c3)nc(N)nc21 | > 50 µM | > 50 µM | –
17 | Nc1nc(OCc2cc(F)ccc2Br)c2nc[nH]c2n1 | 1.65 µM | 22.2 µM | –
18 | Nc1nc(SCc2ccccc2)c2[nH]cnc2n1 | 2.06 µM | 10.4 µM | –
19 | COCOc1cccc(COc2nc(N)nc3[nH]cnc23)c1 | 0.508 µM | 7.6 µM | –
20 | Nc1nc(OCc2cc(F)ccc2F)c2nc[nH]c2n1 | 0.36 µM | 16.6 µM | –

Row | Structure (SMILES) | IC50 [1] | IC50 at 72 h [2] | further results
21 | Nc1nc(OCc2ccccc2Cl)c2nc[nH]c2n1 | 0.148 µM | 5.6 µM | –
22 | Nc1nc(OCc2cccs2)c2nc[nH]c2n1 | 7.15 µM | 42.2 µM | –
23 | Nc1nc(OCc2cccc(C(F)(F)F)c2)c2nc[nH]c2n1 | 0.634 µM | 16 µM | –
24 | CSc1ccc(COc2nc(N)nc3[nH]cnc23)cc1 | 0.829 µM | 6.9 µM | –
25 | Nc1nc(OCc2cc(OCc3ccccc3)cc(OCc3ccccc3)c2)c2nc[nH]c2n1 | 11.1 µM | 38.5 µM | –
26 | Nc1nc(OCc2cccc3ccccc23)c2nc[nH]c2n1 | 5.79 µM | 33 µM | –
27 | CCOC(=O)Cn1cnc2c(OCc3cccc(F)c3)nc(N)nc21 | 8.03 µM | > 50 µM | –
28 | Nc1nc(OCc2cccc(Cl)c2Cl)c2nc[nH]c2n1 | > 50 µM | 13.3 µM | –
29 | Nc1nc(OCc2ccccc2)c2[nH]cnc2n1 [6-O-BENZYLGUANINE] | 0.0914 µM | 8.5 µM | –
30 | CCCCOc1nc(N)nc2[nH]cnc12 | 18.3 µM | > 50 µM | –
31 | COc1ccc(COc2nc(N)nc3[nH]cnc23)cc1 | 5.39 µM | 4.2 µM | –
32 | COc1cccc(Oc2nc(N)nc3[nH]cnc23)c1 | 28.2 µM | > 50 µM | –
33 | Nc1nc(OCc2cccc(Cl)c2)c2nc[nH]c2n1 | 0.179 µM | 4 µM | –
34 | COCOc1ccc(COc2nc(N)nc3[nH]cnc23)cc1OC | 0.519 µM | > 50 µM | –
35 | Cc1cccc(COc2nc(N)nc3nc[nH]c23)c1 | 0.208 µM | 5.5 µM | –
36 | Nc1nc(OCc2cccc(Oc3ccccc3)c2)c2nc[nH]c2n1 | > 50 µM | 34.3 µM | –
37 | COc1cccc(COc2nc(N)nc3[nH]cnc23)c1 | 13.5 µM | 6.6 µM | –
38 | Nc1nc(OCc2cccc(F)c2)c2nc[nH]c2n1 | 34.5 µM | 3.3 µM | –
39 | CCOC(=O)Cn1cnc2c(OCc3cccc(OC)c3)nc(N)nc21 | 21.7 µM | > 50 µM | –
40 | Cc1ccc(COc2nc(N)nc3[nH]cnc23)cc1C | 0.951 µM | 5.3 µM | –

From ChEMBL document CHEMBL6096731, “Structure-Guided Optimization and Preclinical Evaluation of 6-O-Benzylguanine-Based Pin1 Inhibitor for Hepatocellular Carcinoma Treatment” (J Med Chem, 2025)
